Source: paper PMC4958244 (mBio, 2016)

Assays:
N-Als3p [1] = target: T1, N-Als3p (Candida albicans, UniProt Q59L12); experiment: CFG glycan array v5.[…]; type: binding; conditions: glycan printed on glass slide, N-Als3p NT-647 labelled
T1 construct: gene ALS3; N-terminal part (Ig-like adhesin domain); recombinant, purified from S. cerevisiae or E. coli as previously described

N-Als3p [2] = target: T1, N-Als3p; experiment: SPR, immobilised BSA-GlcNAc; type: binding; conditions: GlcNAc shown as BSA glycoconjugate on CM5 chip, 25°C
N-Epa1p = target: T2, N-Epa1p (Nakaseomyces glabratus, UniProt Q6VBJ0); experiment: SPR inhibition of binding to immobilised mucin; conditions: competition with porcine stomach mucin, lactose 6 µM to 1.5 mM, 25°C
T2 construct: gene EPA1; N-terminal PA14-like lectin domain; recombinant, purified from S. cerevisiae or E. coli as previously described

[3] = target: Mucin, partially purified from porcine stomach (porcine); experiment: SPR; Biacore 3000, 25°C; FN, mucin or laminin covalently immobilised on a CM5 chip by amine coupling, adhesin domain flowed over; dissociation constants in the equilibrium state
[4] = target: Laminin, from human placenta (human); experiment: as above
Fibronectin (FN) = Fibronectin (FN) (UniProt P02751 32-2477); experiment: as above; conditions: both partners purified
Chain of Fibronectin (FN) (P02751 32-2477): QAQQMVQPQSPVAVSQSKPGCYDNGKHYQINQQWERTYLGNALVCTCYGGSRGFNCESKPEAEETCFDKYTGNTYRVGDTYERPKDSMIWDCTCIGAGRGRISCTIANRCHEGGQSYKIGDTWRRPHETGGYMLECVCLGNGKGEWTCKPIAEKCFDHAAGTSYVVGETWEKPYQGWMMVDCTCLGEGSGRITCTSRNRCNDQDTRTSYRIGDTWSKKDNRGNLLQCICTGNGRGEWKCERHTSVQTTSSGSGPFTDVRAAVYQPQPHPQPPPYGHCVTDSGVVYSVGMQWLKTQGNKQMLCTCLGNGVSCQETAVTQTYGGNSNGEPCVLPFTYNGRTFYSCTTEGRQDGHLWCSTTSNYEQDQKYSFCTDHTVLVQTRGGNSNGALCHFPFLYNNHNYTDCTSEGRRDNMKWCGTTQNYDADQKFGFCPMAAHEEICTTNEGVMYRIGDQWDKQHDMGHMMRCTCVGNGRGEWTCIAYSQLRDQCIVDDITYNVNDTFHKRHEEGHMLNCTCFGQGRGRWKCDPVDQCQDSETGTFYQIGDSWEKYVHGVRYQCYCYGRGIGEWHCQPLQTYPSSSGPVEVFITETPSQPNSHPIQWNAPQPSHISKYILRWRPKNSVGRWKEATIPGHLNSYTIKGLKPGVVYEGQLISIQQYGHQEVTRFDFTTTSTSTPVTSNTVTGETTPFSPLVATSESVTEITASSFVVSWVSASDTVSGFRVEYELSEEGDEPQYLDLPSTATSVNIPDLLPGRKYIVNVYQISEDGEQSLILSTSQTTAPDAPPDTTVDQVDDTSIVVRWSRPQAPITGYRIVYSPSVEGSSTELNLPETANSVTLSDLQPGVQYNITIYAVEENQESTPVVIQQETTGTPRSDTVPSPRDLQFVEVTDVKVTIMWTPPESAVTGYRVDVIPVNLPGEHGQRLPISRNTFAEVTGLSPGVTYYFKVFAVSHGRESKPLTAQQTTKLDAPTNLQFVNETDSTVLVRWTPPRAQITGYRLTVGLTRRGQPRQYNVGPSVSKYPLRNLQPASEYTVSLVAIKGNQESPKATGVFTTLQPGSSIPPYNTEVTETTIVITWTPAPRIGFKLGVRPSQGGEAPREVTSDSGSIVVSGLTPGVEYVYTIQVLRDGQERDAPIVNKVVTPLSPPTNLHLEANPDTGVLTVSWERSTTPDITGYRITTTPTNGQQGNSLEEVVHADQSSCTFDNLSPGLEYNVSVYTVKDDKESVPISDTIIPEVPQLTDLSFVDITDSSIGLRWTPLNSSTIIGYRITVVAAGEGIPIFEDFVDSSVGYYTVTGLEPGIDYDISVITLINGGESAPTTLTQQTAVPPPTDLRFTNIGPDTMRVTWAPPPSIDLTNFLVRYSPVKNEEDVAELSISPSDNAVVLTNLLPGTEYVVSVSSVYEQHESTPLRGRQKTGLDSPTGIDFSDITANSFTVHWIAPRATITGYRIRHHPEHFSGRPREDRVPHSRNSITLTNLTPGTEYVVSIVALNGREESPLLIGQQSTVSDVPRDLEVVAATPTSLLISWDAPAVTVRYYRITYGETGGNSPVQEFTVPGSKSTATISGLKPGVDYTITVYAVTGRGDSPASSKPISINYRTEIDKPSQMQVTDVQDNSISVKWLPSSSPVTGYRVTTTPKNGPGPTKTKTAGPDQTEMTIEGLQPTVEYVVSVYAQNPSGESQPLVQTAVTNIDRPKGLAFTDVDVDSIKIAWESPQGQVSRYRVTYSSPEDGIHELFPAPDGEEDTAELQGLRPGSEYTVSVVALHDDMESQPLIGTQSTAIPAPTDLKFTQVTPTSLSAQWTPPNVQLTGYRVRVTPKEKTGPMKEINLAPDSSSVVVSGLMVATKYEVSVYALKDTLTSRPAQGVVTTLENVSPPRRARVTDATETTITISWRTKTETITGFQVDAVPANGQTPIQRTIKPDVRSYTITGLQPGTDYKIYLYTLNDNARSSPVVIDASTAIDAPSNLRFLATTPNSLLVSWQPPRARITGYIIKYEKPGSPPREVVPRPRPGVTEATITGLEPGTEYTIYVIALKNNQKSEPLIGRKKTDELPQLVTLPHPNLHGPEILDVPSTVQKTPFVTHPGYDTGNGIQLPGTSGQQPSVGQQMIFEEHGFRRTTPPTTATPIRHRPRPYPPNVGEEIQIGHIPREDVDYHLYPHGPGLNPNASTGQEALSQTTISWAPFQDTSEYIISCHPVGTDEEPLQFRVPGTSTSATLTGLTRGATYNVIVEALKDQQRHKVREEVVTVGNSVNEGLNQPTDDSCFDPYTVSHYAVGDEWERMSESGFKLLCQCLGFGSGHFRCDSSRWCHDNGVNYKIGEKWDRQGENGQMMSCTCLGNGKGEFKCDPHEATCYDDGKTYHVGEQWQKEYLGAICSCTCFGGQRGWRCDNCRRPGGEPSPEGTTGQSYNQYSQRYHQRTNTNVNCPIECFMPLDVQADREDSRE

T2 sequence (Q6VBJ0 entry or part of it): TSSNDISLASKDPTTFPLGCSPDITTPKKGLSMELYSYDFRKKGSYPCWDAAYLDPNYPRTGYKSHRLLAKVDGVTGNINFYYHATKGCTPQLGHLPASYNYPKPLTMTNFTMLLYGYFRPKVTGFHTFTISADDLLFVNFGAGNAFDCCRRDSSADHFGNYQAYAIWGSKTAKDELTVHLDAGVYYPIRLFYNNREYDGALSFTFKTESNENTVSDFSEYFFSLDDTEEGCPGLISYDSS

For `CC(=O)N[C@H]1[C@H](O[C@H]2[C@@H](O)[C@@H](CO)OC(O)[C@@H]2O)O[C@H](CO)[C@H](O)[C@@H]1O[C@@H]1O[C@H](CO)[C@H](O)[C@H](O)[C@H]1O[C@@H]1O[C@@H](C)[C@@H](O)[C@@H](O)[C@@H]1O` (some centres unmarked) [Fucα-1,2-Galβ-1,3-GalNAcβ-1,3-Gal], the “CFG glycan array v5.0” value (N-Als3p [1]; 200 µg/ml) was “GlcNAcβ-1,3GalNAc and Fucα-1,2-Galβ-1,3-GalNAcβ-1,3-Gal were also recognized”.

For `CC(=O)N[C@H]1C(O)O[C@H](CO)[C@@H](O)[C@@H]1O` (some centres unmarked) [GlcNAc], the “SPR, immobilised BSA-GlcNAc” value (N-Als3p [2]) was “SPR experiments confirmed the binding of N-Als3p to GlcNAc”.

With `CC(=O)N[C@H]1[C@H](O[C@H]2[C@@H](O)[C@@H](CO)OC(O)[C@@H]2NC(C)=O)O[C@H](CO)[C@@H](O)[C@@H]1O` (some centres unmarked) [GlcNAcβ-1,3GalNAc] the “CFG glycan array v5.0” value (N-Als3p [1]; 200 µg/ml) was “GlcNAcβ-1,3GalNAc and Fucα-1,2-Galβ-1,3-GalNAcβ-1,3-Gal were also recognized”.

`CC(=O)N[C@H]1C(O)O[C@H](CO)[C@H](O)[C@@H]1O[C@@H]1O[C@H](CO)[C@H](O)[C@H](O)[C@H]1O` (some centres unmarked) [T antigen] was tested, and the “CFG glycan array v5.0” value (N-Als3p [1]; 200 and 20 µg/ml) was “N-Als3p bound also to the T antigen”.

For `OC[C@H]1O[C@@H](O[C@H]2[C@H](O)[C@@H](O)C(O)O[C@@H]2CO)[C@H](O)[C@@H](O)[C@H]1O` (some centres unmarked) [lactose], the “SPR inhibition of binding to immobilised mucin” value (N-Epa1p) was “binding of N-Epa1p to mucin could be blocked by lactose in a concentration-dependent manner”.

In the case of “N-terminal domain of Epa1p from Candida glabrata (N-Epa1p) (domain or fragment)”, the Kd [3] is reported as 4.67 µM.

Work on “N-terminal part of Als3p from Candida albicans (N-Als3p) (domain or fragment)” yielded a Kd [4] of 410 µM.

B1: N-terminal part of Als3p from Candida albicans (N-Als3p) (domain or fragment)
chain: KTITGVFNSFNSLTWSNAATYNYKGPGTPTWNAVLGWSLDGTSASPGDTFTLNMPCVFKFTTSQTSVDLTAHGVKYATCQFQAGEEFMTFSTLTCTVSNTLTPSIKALGTVTLPLAFNVGGTGSSVDLEDSKCFTAGTNTVTFNDGGKKISINVDFERSNVDPKGYLTDSRVIPSLNKVSTLFVAPQCANGYTSGTMGFANTYGDVQIDCSNIHVGITKGLNDWNYPVSSESFSYTKTCSSNGIFITYKNVPAGYRPFVDAYISATDVNSYTLSYANEYTCAGGYWQRAPFTLRWTGYRNSDAGSNGIVIVATTRTVTDSTTAVTTLPFDPNRDKTKTIEILKPIPTTTITTSYVGVTTSYSTKTAPIGETATVIVDIPYHTTTTVTSKWTGTITSTTTHTNPTDSIDTVIVQVP
modifications: Secreted from S. cerevisiae, C-terminal His tag omitted. The strain of the allele is not given; the SC5314 reference entry is used. Limits 18-432 are printed in Text S1.
B1 showed a Kd (Fibronectin (FN)) of 10 ± 1 µM.
